# According to patent publication US20250134870A1, “PATHWAY MODULATOR, PHARMACEUTICAL COMPOSITION HAVING SAME, USE THEREOF, AND THERAPEUTIC METHOD USING SAME” (Jiangsu Yahong Meditech Co., Ltd., priority 2021, published 2025):
# Legend:
# [1] = tested on: IRBP R16-induced experimental autoimmune uveoretinitis (EAU); assay: Bovine IRBP R16-induced experimental autoimmune uveoretinitis (EAU): clinical score, AUC, incidence (Example 6); type: in vivo, Lewis rats
# Method: On Day-1 (i.e., the day before immunization, hereinafter), 60 rats were randomly divided into 6 groups (n=10) based on body weight (see Table 18). On Day 0, rats in Groups 2 to 6 were anesthetized with isoflurane, followed by subcutaneous injection of a total of […] of emulsion resulting from IRBP R16 and CFA emulsified at a 1:1 v/v ratio, on both thighs (50 μL at each site) and tail head (100 μL), respectively.
# From Day 0 after immunization, the eyes of rats were checked daily with a flashlight by gently opening the upper and lower eyelids of the test rats, and the incidence of disease was recorded. Clinical symptoms were scored in a blind manner from the onset of disease to the end of the study according to the criteria listed in Table 17.
# (§1) Dosing started from Day 0 accurately according to the animal body weight for a total of 16 days.
# The results were expressed as “mean±standard error”. Graphpad Prism or SPSS was used for statistical analysis, and p<0.05 was considered statistically significant.
# [2] = Body weight and weight change rate of EAU rats (Example 6); type: in vivo, Lewis rats
# Excerpt: Wherein, Day 0 referred to the day of immunization. The body weight of each rat was monitored twice a week after immunization.
# as §1
# [3] = tested on: dextran sulfate sodium (DSS)-induced colitis; assay: DSS-induced colitis in mice, 3.1% DSS: body weight change and DAI (Example 11); type: in vivo, C57BL/6 mice; conditions: 50 mg/kg, QD
# Excerpt: The experimental mice were housed in an SPF grade animal room for three days for adaptation, and randomly divided into 7 groups (6 model groups and 1 control group) of 10 mice in each group. Dosing of mice started on Day 0 and ended on Day 7.
# The mouse enteritis model of this Example was established by DSS induction: mice in the model group were provided with a 3.1% DSS (dextran sulfate sodium, molecular weight 36,000-50,000) aqueous solution from Day 0 to Day 7, and the DSS aqueous solution was replaced with freshly prepared solution every day to prevent degradation. Mice in the normal control group were provided with normal water. The experimental period was 9 days, and the mice were euthanized and samples were collected at the experimental endpoint.
# The DAI score was assessed daily. The DAI score consisted of 3 parts: body weight change, stool characteristics, and hematochezia (or occult blood) score, and the specific scoring criteria were as shown in Table 49. The DAI scoring of all mice was done by the same staff throughout the experiment.
# Mice were euthanized at the experimental endpoint. The colon of mice was dissected, and photograph was taken, the length was measured, and the contents were removed before weighing.
# The data were expressed as mean±standard error (X±s). Body weight change and disease activity score were statistically analyzed by two-way ANOVA and comparison between groups were performed by Dunnett's test. Other data were statistically analyzed by one-way ANOVA and comparison between groups were performed by Dunnett's test. All analyses were performed using GraphPad Prism software. * P<0.05, ** P<0.01, *** P<0.005, **** P<0.0001 vs. solvent group.
smiles,measurement,setting,value
NCc1c[nH]c(=S)n1[C@H]1CCc2c(F)cc(F)cc2C1 [Nepicastat],Area under the curve (AUC) of clinical score,[1]; 25 mg/kg PO QD × 16 days,45.30
same,Area under the curve (AUC) of clinical score,[1]; 50 mg/kg PO QD × 16 days,39.65
same,Area under the curve (AUC) of clinical score,[1]; 100 mg/kg PO QD × 16 days,37.65
same,"symptoms of uveitis, EAU clinical score and clinical score AUC","[1]; 25, 50 and 100 mg/kg PO QD × 16 days","moderately ameliorate the symptoms of uveitis and reduced the EAU clinical score and clinical score AUC, but this effect was not statistically significant"
same,Incidence rate (%),"[1]; Day 0, 25 mg/kg PO QD",0%
same,Incidence rate (%),"[1]; Day 0, 50 mg/kg PO QD",0%
same,Incidence rate (%),"[1]; Day 0, 100 mg/kg PO QD",0%
same,Incidence rate (%),"[1]; Day 1, 25 mg/kg PO QD",0%
same,Incidence rate (%),"[1]; Day 1, 50 mg/kg PO QD",0%
same,Incidence rate (%),"[1]; Day 1, 100 mg/kg PO QD",0%
same,Incidence rate (%),"[1]; Day 2, 25 mg/kg PO QD",0%
same,Incidence rate (%),"[1]; Day 2, 50 mg/kg PO QD",0%
same,Incidence rate (%),"[1]; Day 2, 100 mg/kg PO QD",0%
same,Incidence rate (%),"[1]; Day 3, 25 mg/kg PO QD",0%
same,Incidence rate (%),"[1]; Day 3, 50 mg/kg PO QD",0%
same,Incidence rate (%),"[1]; Day 3, 100 mg/kg PO QD",0%
same,Incidence rate (%),"[1]; Day 4, 25 mg/kg PO QD",0%
same,Incidence rate (%),"[1]; Day 4, 50 mg/kg PO QD",0%
same,Incidence rate (%),"[1]; Day 4, 100 mg/kg PO QD",0%
same,Incidence rate (%),"[1]; Day 5, 25 mg/kg PO QD",70%
same,Incidence rate (%),"[1]; Day 5, 50 mg/kg PO QD",70%
same,Incidence rate (%),"[1]; Day 5, 100 mg/kg PO QD",80%
same,Incidence rate (%),"[1]; Day 6, 25 mg/kg PO QD",100%
same,Incidence rate (%),"[1]; Day 6, 50 mg/kg PO QD",100%
same,Incidence rate (%),"[1]; Day 6, 100 mg/kg PO QD",80%
same,Incidence rate (%),"[1]; Day 7, 25 mg/kg PO QD",70%
same,Incidence rate (%),"[1]; Day 7, 50 mg/kg PO QD",100%
same,Incidence rate (%),"[1]; Day 7, 100 mg/kg PO QD",50%
same,Incidence rate (%),"[1]; Day 8, 25 mg/kg PO QD",100%
same,Incidence rate (%),"[1]; Day 8, 50 mg/kg PO QD",100%
same,Incidence rate (%),"[1]; Day 8, 100 mg/kg PO QD",100%
same,Incidence rate (%),"[1]; Day 9, 25 mg/kg PO QD",100%
same,Incidence rate (%),"[1]; Day 9, 50 mg/kg PO QD",100%
same,Incidence rate (%),"[1]; Day 9, 100 mg/kg PO QD",100%
same,Incidence rate (%),"[1]; Day 10, 25 mg/kg PO QD",100%
same,Incidence rate (%),"[1]; Day 10, 50 mg/kg PO QD",100%
same,Incidence rate (%),"[1]; Day 10, 100 mg/kg PO QD",100%
same,Incidence rate (%),"[1]; Day 11, 25 mg/kg PO QD",100%
same,Incidence rate (%),"[1]; Day 11, 50 mg/kg PO QD",100%
same,Incidence rate (%),"[1]; Day 11, 100 mg/kg PO QD",100%
same,Incidence rate (%),"[1]; Day 12, 25 mg/kg PO QD",100%
same,Incidence rate (%),"[1]; Day 12, 50 mg/kg PO QD",100%
same,Incidence rate (%),"[1]; Day 12, 100 mg/kg PO QD",100%
same,Incidence rate (%),"[1]; Day 13, 25 mg/kg PO QD",100%
same,Incidence rate (%),"[1]; Day 13, 50 mg/kg PO QD",100%
same,Incidence rate (%),"[1]; Day 13, 100 mg/kg PO QD",100%
same,Incidence rate (%),"[1]; Day 14, 25 mg/kg PO QD",100%
same,Incidence rate (%),"[1]; Day 14, 50 mg/kg PO QD",100%
same,Incidence rate (%),"[1]; Day 14, 100 mg/kg PO QD",100%
same,Incidence rate (%),"[1]; Day 15, 25 mg/kg PO QD",100%
same,Incidence rate (%),"[1]; Day 15, 50 mg/kg PO QD",100%
same,Incidence rate (%),"[1]; Day 15, 100 mg/kg PO QD",100%
same,Incidence rate (%),"[1]; Day 16, 25 mg/kg PO QD",100%
same,Incidence rate (%),"[1]; Day 16, 50 mg/kg PO QD",100%
same,Incidence rate (%),"[1]; Day 16, 100 mg/kg PO QD",100%
same,Incidence rate (%),"[1]; Day −1, 25 mg/kg PO QD",0%
same,Incidence rate (%),"[1]; Day −1, 50 mg/kg PO QD",0%
same,Incidence rate (%),"[1]; Day −1, 100 mg/kg PO QD",0%
same,inhibition at 25 mg/kg,"[1]; Rattus norvegicus, 384 h, 25 mg/kg PO QD × 16 days, vs model control, read-out: Inhibition rate of clinical score AUC",8.67%
same,inhibition at 50 mg/kg,"[1]; Rattus norvegicus, 384 h, 50 mg/kg PO QD × 16 days, vs model control, read-out: Inhibition rate of clinical score AUC",20.1%
same,inhibition at 100 mg/kg,"[1]; Rattus norvegicus, 384 h, 100 mg/kg PO QD × 16 days, vs model control, read-out: Inhibition rate of clinical score AUC",24.1%
same,Rat body weight,"[2]; Day 2, 25 mg/kg PO QD",193.95 g
same,Weight change rate (%),"[2]; Day 2, 25 mg/kg PO QD",3.25%
same,Rat body weight,"[2]; Day 2, 50 mg/kg PO QD",194.04 g
same,Weight change rate (%),"[2]; Day 2, 50 mg/kg PO QD",2.53%
same,Rat body weight,"[2]; Day 2, 100 mg/kg PO QD",194.02 g
same,Weight change rate (%),"[2]; Day 2, 100 mg/kg PO QD",2.11%
same,Rat body weight,"[2]; Day 6, 25 mg/kg PO QD",204.67 g
same,Weight change rate (%),"[2]; Day 6, 25 mg/kg PO QD",7.06%
same,Rat body weight,"[2]; Day 6, 50 mg/kg PO QD",202.28 g
same,Weight change rate (%),"[2]; Day 6, 50 mg/kg PO QD",6.90%
same,Rat body weight,"[2]; Day 6, 100 mg/kg PO QD",205.97 g
same,Weight change rate (%),"[2]; Day 6, 100 mg/kg PO QD",8.45%
same,Rat body weight,"[2]; Day 9, 25 mg/kg PO QD",207.81 g
same,Weight change rate (%),"[2]; Day 9, 25 mg/kg PO QD",9.26%
same,Rat body weight,"[2]; Day 9, 50 mg/kg PO QD",206.07 g
same,Weight change rate (%),"[2]; Day 9, 50 mg/kg PO QD",8.83%
same,Rat body weight,"[2]; Day 9, 100 mg/kg PO QD",214.36 g
same,Weight change rate (%),"[2]; Day 9, 100 mg/kg PO QD",12.84%
same,Rat body weight,"[2]; Day 13, 25 mg/kg PO QD",214.28 g
same,Weight change rate (%),"[2]; Day 13, 25 mg/kg PO QD",12.23%
same,Rat body weight,"[2]; Day 13, 50 mg/kg PO QD",216.20 g
same,Weight change rate (%),"[2]; Day 13, 50 mg/kg PO QD",14.24%
same,Rat body weight,"[2]; Day 13, 100 mg/kg PO QD",223.98 g
same,Weight change rate (%),"[2]; Day 13, 100 mg/kg PO QD",17.96%
same,Rat body weight,"[2]; Day 16, 25 mg/kg PO QD",219.00 g
same,Weight change rate (%),"[2]; Day 16, 25 mg/kg PO QD",12.36%
same,Rat body weight,"[2]; Day 16, 50 mg/kg PO QD",218.42 g
same,Weight change rate (%),"[2]; Day 16, 50 mg/kg PO QD",15.41%
same,Rat body weight,"[2]; Day 16, 100 mg/kg PO QD",227.40 g
same,Weight change rate (%),"[2]; Day 16, 100 mg/kg PO QD",19.77%
same,Rat body weight,"[2]; Day −1, 25 mg/kg PO QD",188.31 g
same,Weight change rate (%),"[2]; Day −1, 25 mg/kg PO QD",0.00%
same,Rat body weight,"[2]; Day −1, 50 mg/kg PO QD",189.34 g
same,Weight change rate (%),"[2]; Day −1, 50 mg/kg PO QD",0.00%
same,Rat body weight,"[2]; Day −1, 100 mg/kg PO QD",189.92 g
same,Weight change rate (%),"[2]; Day −1, 100 mg/kg PO QD",0.00%
same,"symptoms caused by DSS-induced colitis (body weight loss, diarrhea, hematochezia)",[3],"effectively alleviated the symptoms of body weight loss, diarrhea and hematochezia"
same,DSS-induced body weight loss,[3]; vs solvent group,effectively alleviated DSS-induced body weight loss
same,disease activity score (DAI),[3]; vs solvent group,significantly lower than that in the solvent group
